# Tested on: P. falciparum 3D7 growth, pLDH absorbance
# Assay: P. falciparum 3D7 growth inhibition, dose response, strain 3D7 (AID 2305)
row,Compound,IC50 [µM]
1,O=c1c2ccc(F)cc2sn1-c1ccc(Cl)cc1,1.15
2,Cc1nc(-c2ccc(-c3ccc(C(=O)Nc4ccc(-n5ccnc5)c(N5CCN(C)CC5)c4)cc3)c(C)c2)no1,0.83
3,Cc1cccc(C(=O)NC(NC(=S)Nc2ccc([N+](=O)[O-])cc2)C(Cl)(Cl)Cl)c1 (stereo unspecified),0.74
4,Cc1csc(NC(=O)c2cn(-c3ccccc3)nc2-c2cccs2)n1,0.91
5,Cc1cccc(Nc2c(-c3cc(Br)ccc3O)nc3ncccn23)c1,0.21
6,C=CCn1c(Sc2ccc(C#N)c([N+](=O)[O-])c2)nnc1-c1ccc(OC)cc1,0.8
7,N#Cc1cncc(-c2nc3c(N4CCC(Cc5ccccc5)CC4)cccc3n2C2CCNC2)c1 (stereo unspecified),0.99
8,COc1ccccc1Oc1c(N(C)S(=O)(=O)c2ccc(C(C)C)cc2)nc(C(F)(F)F)nc1N(C)S(=O)(=O)c1ccc(C(C)C)cc1,0.85
9,Cc1ccc(C)c(-n2c(SCC(=O)Nc3ccc(C(N)=O)cc3)nnc2-c2cccc(Cl)c2)c1,0.84
10,CC(=O)Nc1ccc(CN2CCC(N(C)c3cc(NC(=O)c4cccs4)ccn3)CC2)cc1,0.89
11,CCCN(CCCCCCNCCc1ccc(Cl)cc1)CCc1ccc(O)c(O)c1,0.94
12,O=C(Nc1cc(Cl)cc(Cl)c1)Nc1ccccc1C(=O)NC1CCCCC1,0.75
13,CCc1cn2c3c(cc(C(=O)N[C@@H](Cc4ccccc4)[C@H](O)CNC4CCCC4)cc13)N(C)S(=O)(=O)CC2,0.05
14,CCN(CC)CCCN1CCN(C(=O)c2cccc(-c3noc(C(F)(F)F)n3)c2)CC1,0.15
15,COc1ccc2nccc([C@@H](O)CN3CCC(NC(=O)Cn4nc(-c5ccc(C(F)(F)F)cc5)ccc4=O)CC3)c2c1,0.74
16,O=c1cc(NCCCNCc2ccc(C(F)(F)F)s2)[nH]c2ccccc12,0.2
17,O=C(/C=C/c1ccc(Cl)c(Cl)c1)NCCCN1CCC(c2c[nH]c3ccccc23)CC1,0.97
18,CCCC1N=C(N)N=C(N)N1c1ccc(C)c(C)c1 (stereo unspecified),0.07
19,Cc1c(-c2ccccc2)ccc2[nH]cc(CC#N)c12,0.7
20,O=C(Nc1cc(C(F)(F)F)cc(C(F)(F)F)c1)c1cc(C(F)(F)F)cc(C(F)(F)F)c1,0.87
21,C=C[C@H]1CN(CCCCCCC)CC[C@H]1CCNc1ccnc2ccc(OC)cc12,0.06
22,O=c1[nH]c(NCCCCCN2CCC(c3c[nH]c4ccccc34)CC2)ncc1Cc1ccc(Cl)c(Cl)c1,0.97
23,CC[C@@]1(O)C(=O)OCc2c1cc1n(c2=O)Cc2c-1nc1cc3c(cc1c2CN1CCN(C)CC1)OCCO3,0.45
24,O=C(C=Cc1ccc(Cl)c(Cl)c1)NCCCCCN1CCC(CCNC(=O)c2cccc3ccccc23)CC1,1.59

row,Compound,IC50 [µM]
1,C=C[C@H]1CN2CC[C@H]1C[C@@H]2[C@@H](O)c1ccnc2ccccc12,0.77
2,Cc1[nH]c(C)c(-c2ccc(-c3ccc(Cl)cc3)nc2)c(=O)c1Br,0.11
3,Clc1ccc(Nc2nc(Nc3ccc(Cl)c(Cl)c3)nc(Sc3nc4ccccc4[nH]3)n2)cc1Cl,0.49
4,O=C(Nc1cccc(-c2ccc(CN3CCC(O)CC3)cc2)c1)c1ccc(Cl)cc1,0.96
5,CCn1c(-c2nonc2N)nc2c(-c3ccccc3)ncc(OCCCNCCCN3CCOCC3)c21,0.67
6,CCN(CC)CCCC(C)Nc1c2ccc(Cl)cc2nc2ccc(OC)cc12 (stereo unspecified),0.04
7,CC(C)CCNc1nc2ccccc2nc1Nc1cccc(C(F)(F)F)c1,0.91
8,O=S(=O)(c1ccc(OCc2ccc(Cl)cc2)cc1)c1cc2c(c(-c3ccc(F)cc3)c1)CCN(CC1CC1)CC2,1.12
9,O=C(NCC1CC1)C1CCN(C(c2ccccc2)c2nc3ccccc3s2)CC1 (stereo unspecified),1.02
10,O=C(Nc1ccccc1O)c1ccc(S(=O)(=O)c2ccc(Cl)cc2)cc1,1.35
11,CC(=O)N(C)C1CCN(Cc2cccc(-c3ccc(-c4nc5ccc(F)cc5[nH]4)cc3)c2)C1 (stereo unspecified),0.96
12,COc1cc(CCOc2c(C)nc(N)nc2N)cc(OC)c1OC,0.02
13,CC(C)NCc1ccc(-c2cccc(NC(=O)c3ccc(F)cc3)c2)cc1,0.88
14,COc1ccc(-c2nonc2NC(=O)c2cccc(C)c2)cc1OC,0.81
15,O=C(Nc1ccc(N2CCCN(Cc3cccc(F)c3)CC2)cc1)c1ccccc1,0.96
16,COc1ccc(Nc2ncc(Cl)c(Nc3cccnc3C(N)=O)n2)cc1N1CCN(C)CC1,0.23
17,O=C(C=Cc1ccc(Cl)c(Cl)c1)NC1CCN(CCc2ccccc2)CC1,0.59
18,COc1ccc(CN2CCCC(C(=O)c3ccc(C(F)(F)F)cc3)C2)c(O)c1 (stereo unspecified),0.85
19,CN1CCCC1CCNC(=O)[C@H](CC1CCCCC1)NC(=O)c1ccc(O)c(-c2ccc(Cl)c(Cl)c2)c1 (stereo partly specified),0.74
20,Cc1cccc2[nH]c(-c3cccc(-c4ccc(NC(=O)COc5ccccc5C(N)=O)cc4)c3)nc12,0.89
21,COc1ccc(CNCc2ccccc2)cc1-c1ccc(S(=O)(=O)NCCN2CCCC2)s1,0.67
22,c1cc2nc(CCCCCc3nc4ccc(C5=N[C@@H]6CCCC[C@@H]6N5)cc4[nH]3)[nH]c2cc1C1=N[C@@H]2CCCC[C@@H]2N1,0.2
23,O=C(Nc1ccccc1)Nc1cccc(-c2cc(CNCCc3ccccc3)sc2-c2ccncc2)c1,0.6
24,O=C(c1cc(-c2ccccc2)n[nH]1)N1CCN(S(=O)(=O)c2ccc(Cl)s2)CC1,0.93

row,Compound,IC50 [µM]
1,CC(C)C[C@@H](C(=O)N[C@@H](CCCCNC(=O)OCc1ccccc1)C(=O)Nc1nccs1)[C@H](C)N(O)C=O,0.19
2,O=C(Nc1ccccc1Cc1ccccc1)c1ccccc1C(F)(F)F,0.78
3,O=[N+]([O-])c1cccc(-c2nc3ccc(C4=N[C@H]5CCCC[C@H]5N4)cc3[nH]2)c1,0.2
4,CNC(=S)NN=C(C)c1ccccn1,0.27
5,CN1CCCN(c2ccnc3cc4c(cc23)N(C(=O)c2ccc(Cl)cc2Cl)CC4)CC1,0.81
6,COc1cc2nc(N(C)CC3COc4ccccc4O3)nc(N)c2cc1OC (stereo unspecified),1.55
7,O=C(Nc1cccc(CN2CCN(C(=O)c3ccccc3)CC2)c1)c1cccs1,0.31
8,CCCCCCNC(=O)C1Cc2c([nH]c3ccc(F)cc23)C2(CCN(Cc3ccccc3)CC2)N1 (stereo unspecified),0.87
9,COc1cccc(CNC[C@@H](O)[C@H](Cc2ccccc2)NC(=O)c2cc(N3CCCC3=O)c3[nH]cc(C(C)C)c3c2)c1,0.53
10,COc1cc2nc(NCCc3ccccc3)nc(NCCc3ccccc3)c2cc1OC,0.28
11,Cc1ccc(C(O)CNc2ccnc(Nc3cccc(-c4csc(C)n4)c3)n2)cc1 (stereo unspecified),0.83
12,CCc1cccc(OCC2CCCN(c3ccc(C(=O)NC4CC4)cn3)C2)c1 (stereo unspecified),1.44
13,CC1CC(C)CN(CC(O)CNC(=O)Nc2ccc(Br)cc2)C1 (stereo unspecified),1.05
14,Cc1[nH]c2ccccc2c1C(=O)CSc1nn(-c2ccccc2)c(=S)s1,0.7
15,CCNc1cc(C)nc(Nc2ccc(NS(=O)(=O)c3cc(OC)ccc3OC)cc2)n1,0.85
16,COc1ccccc1C1CC(c2ccccc2)=NN1C(=O)c1ccco1 (stereo unspecified),0.4
17,CC[C@H]1CN(C/C=C/c2ccc(OC)cc2)CC[C@H]1CCCc1ccnc2ccc(O)cc12,0.66
18,CCOc1cc2c(cc1OCC)C(c1cc(OC)c(O)cc1Cl)NCC2 (stereo unspecified),0.75
19,O=C(Nc1cccc(C(F)(F)F)c1)c1ccc(S(=O)(=O)NCC2CCCN2CC2CCCCC2)cc1 (stereo unspecified),0.75
20,Cn1c(Nc2nnc(C3CC3)s2)nc2cc(Nc3ccnc(Nc4cccc(CS(C)(=O)=O)c4)n3)ccc21,0.68
21,COc1ccc(CCNC(=O)c2cc(C)ccc2O)cc1-c1ccc(C(C)(C)C)cc1,0.48
22,CNC(=O)c1cnc(Nc2ccc(N3CCN(C)CC3)cc2)nc1Nc1cccc(OC(C)C)c1,0.15
23,O=C(Cn1c(CCc2cccc(F)c2F)cc(=O)c2ccccc21)N(CCN1CCCC1)Cc1ccc(-c2ccc(C(F)(F)F)cc2)cc1,0.86
24,CN1CCC(N2CCN(Cc3ccc(-c4cccc(-c5nc6ccc(F)cc6[nH]5)c4)cc3)CC2)CC1,0.17

row,Compound,IC50 [µM]
1,Cc1ccc(NC(=O)Nc2ccc(I)c(OCCN(C)C)c2)cc1Cl,0.56
2,CC12CCC(C(=O)N(CC(O)Cn3c4ccc(Cl)cc4c4cc(Cl)ccc43)C1=O)C2(C)C (stereo unspecified),0.84
3,Cc1cc(N[C@@H](Cc2ccccc2)C(=O)NCCOc2ccccc2)nc(NCCc2cccs2)n1,1
4,Nc1nccc2ccc(-c3ccsc3)cc12,0.33
5,CCN(CC)CCCC(C)Nc1c(-c2ccc(C)cc2)cnc2ccccc12 (stereo unspecified),0.2
6,Oc1c(Cl)cc(Nc2nccc(Nc3ccc(Oc4ccccc4)cc3)n2)cc1Cl,0.79
7,O=C(NCc1ccc(S(=O)(=O)N2CCC(CN3CCC(c4c[nH]c5ccccc45)CC3)CC2)s1)c1ccccc1,0.84
8,CCCc1cc(=O)oc2cc(OC)c(C(=O)CC(C)C)c(OC)c12,1.01
9,CCCCCCc1cc(OC)c(OC)cc1C(C)Nc1ccnc2cc(Cl)ccc12 (stereo unspecified),0.49
10,COC(=O)c1cccc(CNCc2cccc(-c3ccc(-c4nc5ccccc5[nH]4)s3)c2)c1,0.49
11,O=c1cc(NC[C@H]2CCC[C@@H]2NC2CCCc3c2[nH]c2ccccc32)[nH]c2ccccc12 (stereo partly specified),0.79
12,CC(C)c1ccc(CN2CCC(CNC(=O)c3cc(-c4ccccc4F)cs3)C2)cc1 (stereo unspecified),0.99
13,CCCn1c(Sc2ccc(C#N)c([N+](=O)[O-])c2)nnc1-c1cc(OC)cc(OC)c1,0.72
14,Cc1cccc2[nH]c(-c3cccc(-c4ccc(CNCCCN5CCCC5=O)cc4)c3)nc12,0.96
15,O=C(Nc1ccc(Oc2ccccc2)cc1)N(CCN1CCCC1)Cc1ccc(-c2ccc(CN3CCNCC3)cc2)cc1,0.89
16,CCN(CCC1(c2ccc(Cl)c(Cl)c2)CN(C(=O)c2cc(OC)c(OC)c(OC)c2)CCO1)[C@@H]1C[C@@H]2c3ccccc3C[C@@H]21 (stereo partly specified),0.43
17,CC(C)[C@H](NC(=O)c1c(CN2CCC(N3CCCCC3)CC2)c(-c2ccccc2)nc2cc(O)ccc12)c1ccccc1,0.74
18,CC(Cc1ccc(S(=O)(=O)N(C(C)C)C(C)C)cc1)NCC(O)c1cccc(C(F)(F)F)c1 (stereo unspecified),0.69
19,COc1cc(C(=O)N2CCOC(CCN3CCC(Cc4ccc(F)cc4)CC3)(c3ccc(Cl)c(Cl)c3)C2)cc(OC)c1OC (stereo unspecified),0.9
20,C[C@@H]1CCC[C@H](C)N1C[C@@H](O)CNS(=O)(=O)c1cccc(C(F)(F)F)c1,0.69
21,COCCNCc1ncsc1-c1ccc2c(Nc3cc(O)ccc3C)ccnc2c1,0.7
22,C=CCOC(=O)N1CCC(CNCc2cccc(-c3cccc(-c4nc5ccccc5[nH]4)c3)c2)C1 (stereo unspecified),0.34
23,Cc1cnc(C(=O)Nc2cccc(-c3cccc(-c4nc5ccc(F)cc5[nH]4)c3)c2)cn1,0.77
24,O=C(Nc1cccc(F)c1)N(Cc1ccc(-c2cccc(CN3CCNCC3)c2)cc1)C1CCN(Cc2ccccc2)CC1,0.76
